Assay results published in US4352885A, “Preparation of a novel NADP linked alcohol-aldehyde/ketone oxidoreductase from thermophilic anaerobic bacteria for analytical and commercial use” (Wisconsin Alumni Research Foundation, priority 1980, dated 1982).

Experiments:
[1] = molecular target: T1, heat treated T. brockii extract (Thermoanaerobacter brockii, UniProt P14941); assay: Reduction of 2-pentanone by heat treated extract with NADPH regenerating system (gas chromatographic analysis); assay type: biochemical, Thermoanaerobium brockii; conditions: 3 g in 150 ml; 0.2 v/v isopropanol, 0.3 mM NADP; 40 hr. at 37° C.
T1 construct: made in house; host or cells: T. brockii itself (native host; heat treated crude extract)
T1 sequence (P14941 1-352): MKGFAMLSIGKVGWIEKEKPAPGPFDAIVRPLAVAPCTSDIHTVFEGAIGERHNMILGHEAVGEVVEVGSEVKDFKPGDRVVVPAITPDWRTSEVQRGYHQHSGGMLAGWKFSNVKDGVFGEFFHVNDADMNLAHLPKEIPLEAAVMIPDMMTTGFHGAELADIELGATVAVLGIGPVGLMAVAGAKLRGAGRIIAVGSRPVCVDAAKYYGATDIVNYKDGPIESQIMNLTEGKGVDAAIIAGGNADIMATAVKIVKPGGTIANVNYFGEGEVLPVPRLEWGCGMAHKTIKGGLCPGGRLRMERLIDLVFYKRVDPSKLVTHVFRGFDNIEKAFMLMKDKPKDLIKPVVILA
Method: As illustrated in the following reaction diagram, an NADPH regenerating system can be initiated with isopropanol as the electron donor for the reduction of 2-pentanone. [drawing 1] A 150 ml solution was prepared containing 50 mM Tris-HCl (pH 7.8), 0.2 v/v isopropanol, 2 mM dithiothreitol, 0.3 mM NADP and 3 g 2-pentanone. After the solution was degassed with N2, sufficient heat treated T. brockii extract was added to yield an activity of 1 U/min./ml. The solution was incubated in a stoppered vessel for 40 hr. at 37° C. Gas chromatographic analysis indicated a 90% conversion of 2-pentanone to the corresponding alcohol. The mixture was extracted with diethyl ether and then fractionally distilled. The fractions were analyzed by conventional gas chromatographic and NMR (nuclear magnetic resonance) methods. The pure 2-pentanol fraction yielded a dextrorotatory optical rotation which corresponded to that of a highly optically enriched compound. The result in optical purity was dependent on incubation temperature and initial rate of isopropanol to 2-pentanone. Decreasing the temperature from 37° C. to 25° C. and the 2-pentanone concentration from 3 grams/150 ml to 0.6 grams/150 ml, increases the d/l bar ratio from 6/l to 9/l for the resulting 2-pentanol.

[2] = molecular target: T2, NADP linked alcohol dehydrogenase (alcohol-aldehyde/ketone oxidoreductase) (Thermoanaerobacter brockii, UniProt P14941); assay: Specific activity of partially purified NADP linked alcohol dehydrogenase with alcohols and carbonyl compounds (absorbance at 334 nm); assay type: biochemical, Thermoanaerobium brockii; conditions: saturating substrate (0.2-0.5 M alcohol or ketone, 10 mM acetaldehyde); 0.5 mM NADP or 0.2 mM NADPH; 0.1 M Tris-Cl pH 7.8
T2 construct: of the T. brockii enzyme preparation with various alcohols and carbonyl compounds; made in house; host or cells: T. brockii itself (native host; partially purified enzyme)
T2 sequence (P14941 1-352): T1 sequence (P14941 1-352)

## CCCC(C)=O [CH3 COCH2 CH2 CH3, 2-pentanone]
[1]
  Conversion to the corresponding alcohol: 90%
[2]
  Activity V/mg. at 60° C.: 4.2 μ Mole/Min./Mg Protein
